Test results taken from patent US10626115B2, “Fused pyrimidinone and triazinone derivatives containing bridged nitrogen, their process of preparation and their therapeutic uses as antifungal and/or antiparasitic agents” (UNIVERSITE DE NANTES, priority 2015, dated 2020).
≈ marks a conversion by molar mass, not a printed value.

Experiments:
[1] = test system: fluconazole-susceptible C. albicans strain: CAAL93; experiment: Antifungal susceptibility, spectrofluorimetric microdilution, CAAL93; assay type: cell-based; settings: Candida albicans, read-out: MIC values CAAL93
Description: (§1) Eight strains of Candida spp. with various azoles-susceptibilities were used: • One fluconazole-susceptible C. albicans strain: CAAL93 • Two fluconazole-resistant C. albicans strains: CAAL111 (efflux pump) and CAAL117 (erg11 mutations+voriconazole-resistant) • five fluconazole-resistant Candida non albicans strains: C. krusei (CAKR7, CAKR8), C. glabrata (CAGL2), C. parapsilosis s.l. (CAPA1, CAPA2).
(§2) Antifungal susceptibility was evaluated with a spectrofluorimetric microdilution method.

[2] = test system: fluconazole-resistant C. krusei (CAKR8); experiment: microbe, parasite or virus in culture; assay type: cell-based; settings: Pichia kudriavzevii, read-out: MIC values CAKR8
Description: as §1, §2

[3] = test system: fluconazole-resistant C. glabrata (CAGL2); experiment: microbe, parasite or virus in culture; assay type: cell-based; settings: Nakaseomyces glabratus, read-out: MIC values CAGL2
Description: as §1, §2

[4] = test system: fluconazole-resistant C. krusei (CAKR7); experiment: microbe, parasite or virus in culture; assay type: cell-based; settings: Pichia kudriavzevii, read-out: MIC values CAKR7
Description: as §1, §2

[5] = test system: fluconazole-resistant C. parapsilosis s.l. (CAPA1); experiment: microbe, parasite or virus in culture; assay type: cell-based; settings: Lodderomyces parapsilosis, read-out: MIC values CAPA1
Description: as §1, §2

[6] = test system: fluconazole-resistant C. parapsilosis s.l. (CAPA2); experiment: microbe, parasite or virus in culture; assay type: cell-based; settings: Lodderomyces parapsilosis, read-out: MIC values CAPA2
Description: as §1, §2

[7] = test system: fluconazole-resistant C. albicans strain CAAL111 (efflux pump); experiment: microbe, parasite or virus in culture; assay type: cell-based; settings: Candida albicans, read-out: MIC values CAAL111
Description: as §1, §2

[8] = test system: Candida albicans strain (CAAL93); experiment: Murine systemic candidiasis; assay type: in vivo; settings: neutropenic Swiss mice, CAAL93 i.v., 10 mg/kg per os once a day for 5 days
Description: (§3) Transiently neutropenic female Swiss mice were used for experiments on systemic candidiasis and invasive aspergillosis.
Mice were inoculated intravenously with a Candida albicans strain (CAAL93). Treatment was administrated once a day (10 mg/kg per os) for 5 days. […] Fungal burden of the kidney was evaluated in dead animals during the experimentation or in animals sacrificed at the end of the experimentation.

[9] = test system: A. fumigatus susceptible strain ASFU7; experiment: Antifungal susceptibility, spectrofluorimetric microdilution, ASFU7; assay type: cell-based, Aspergillus fumigatus; settings: Aspergillus fumigatus, read-out: MIC values ASFU7
Description: (§4) Eleven strains of A. fumigatus with various itraconazole susceptibility were used: • Five susceptible strains: ASFU7, ASFU35A, ASFU38A, ASFU76 and ASFU78. • Six itraconazole-resistant strains: ASFU77 (erg11 mutation), ASFU13, ASFU17, ASFU19, ASFU20, ASFU23.
(§5) Antifungal susceptibility was evaluated with a spectrofluorimetric microdilution method. MIC was the concentration that was able to inhibit 80% of fluorescence measured in the control wells.

[10] = Cytotoxicity on HeLa cells; assay type: cell-based, Human; settings: human, 50% inhibition of control fluorescence
Description: Hela Human cell line was used in view to evaluate cytotoxicity. It was evaluated with a spectrofluorimetric microdilution method. IC50 was the concentration that was able to inhibit 50% of fluorescence measured in the control wells.

[11] = test system: A. fumigatus susceptible strain ASFU76; experiment: Antifungal susceptibility, spectrofluorimetric microdilution, ASFU76; assay type: cell-based, Aspergillus fumigatus; settings: Aspergillus fumigatus, read-out: MIC values ASFU76
Description: as §4, §5

[12] = test system: A. fumigatus itraconazole-resistant strain ASFU77 (erg11 mutation); experiment: Antifungal susceptibility, spectrofluorimetric microdilution, ASFU77; assay type: cell-based, Aspergillus fumigatus; settings: Aspergillus fumigatus, read-out: MIC values ASFU77
Description: as §4, §5

[13] = test system: A. fumigatus susceptible strain ASFU38A; experiment: Antifungal susceptibility, spectrofluorimetric microdilution, ASFU38A; assay type: cell-based, Aspergillus fumigatus; settings: Aspergillus fumigatus, read-out: MIC values ASFU38A
Description: as §4, §5

[14] = test system: A. fumigatus susceptible strain ASFU35A; experiment: Antifungal susceptibility, spectrofluorimetric microdilution, ASFU35A; assay type: cell-based, Aspergillus fumigatus; settings: Aspergillus fumigatus, read-out: MIC values ASFU35A
Description: as §4, §5

[15] = test system: promastigote stage of a Leishmania mexicana strain; experiment: Anti-Trypanosomatidae activity, promastigote stage, spectrofluorimetric microdilution; assay type: cell-based
Description: Compounds were evaluated on the promastigote stage of a Leishmania mexicana strain using a spectrofluorimetric microdilution method. Inhibitory concentration 50 (IC50) was the concentration that inhibited 50% of the control growth.

[16] = test system: Aspergillus fumigatus (ASFU7) spores; experiment: Murine invasive aspergillosis; assay type: in vivo; settings: neutropenic Swiss mice, ASFU7 spores i.v., 10 mg/kg per os once a day for 5 days
Description: as §3
Mice were inoculated intravenously with Aspergillus fumigatus (ASFU7) spores.
Treatment was administrated once a day (10 mg/kg per os) for 5 days. […] Fungal burden of the kidney was evaluated in dead animals during the experimentation or in animals sacrificed at the end of the experimentation.

[17] = test system: A. fumigatus susceptible strain ASFU78; experiment: Antifungal susceptibility, spectrofluorimetric microdilution, ASFU78; assay type: cell-based, Aspergillus fumigatus; settings: Aspergillus fumigatus, read-out: MIC values ASFU78
Description: as §4, §5

C[C@@H](n1ccc2nc(-c3ccc(C#N)cc3)cn2c1=O)[C@](O)(Cn1cncn1)c1ccc(F)cc1F [Compound 34, 6-[(1R,2R)-2-(2,4-Difluorophenyl)-2-hydroxy-1-methyl-3-(1H-1,2,4-triazol-1-yl)propyl]-2-(4-cyanophenyl)imidazo[1,2-c]pyrimidin-5-one]
MIC [1]: < 0.001 µg/mL
MIC [2]: 0.06 ± 0.01 µg/mL (≈ 0.123 µM)
MIC [3]: 0.64 ± 0.27 µg/mL (≈ 1.31 µM)
MIC [4]: 0.45 ± 0.31 µg/mL (≈ 0.923 µM)
MIC [5]: 0.002 ± 0.001 µg/mL (≈ 0.0041 µM)
MIC [6]: 0.002 ± 0.001 µg/mL (≈ 0.0041 µM)
MIC [7]: 0.003 ± 0.001 µg/mL (≈ 0.00615 µM)
survival efficiency compared with FLC [8]: significantly more efficient than FLC
survival compared with the non-treated group ([8]; 28 days (compound 51, 14 days), p<0.05): significant longer survival
activity on fungal burden of the kidney compared to FLC ([8]; p<0.05): significantly higher when compared to FLC
fungal burden of the kidney ([8]; p<0.05 (compound 51 p<0.001)): significantly decreased
MIC [9]: 2.43 ± 0.19 µg/mL (≈ 4.98 µM)
IC50 [10]: 25 µM
MIC [11]: 6.44 ± 0.17 µg/mL (≈ 13.2 µM)
MIC [12]: 38.4 ± 13.1 µg/mL (≈ 78.7 µM)
MIC [13]: 12.6 ± 4.05 µg/mL (≈ 25.9 µM)
MIC [14]: 6.27 ± 0.3 µg/mL (≈ 12.9 µM)
effectiveness against the promastigote stage of L. Mexicana, in words [15]: effective
IC50 ([15]; Leishmania mexicana, promastigote stage, 50% of control growth, read-out: L. mexicana (IC50 μM)): 2.8 ± 0.2 µM
survival ([16]; 14 days, p<0.01): did survive significantly longer
activity compared with compounds 29 and 35 ([16]; p<0.05): significantly more active than compounds 29 and 35
fungal burden of the kidney ([16]; p<0.05): significantly reduced
MIC [17]: 5.98 ± 0.62 µg/mL (≈ 12.3 µM)
